“Also recorded” adds a separate entry of the source.
Assays:
[1] = tested on: rats; conditions: cited from earlier work
[2] = tested on: 79-HMC; experiment: Proliferation of immortalized human muscle cells, older donor; format: cell-based; conditions: for cell proliferation (measured at day 4): older subject cells
Protocol: (§1) Immortalized human cells from male donors (25-HMC) […] (79-HMC) are grown from the proliferation stage until they become 80% confluent, differentiate, and become myotubes. […] Early proliferation markers (Pax7, Myf5, MyoD, and MyoG were assessed via RT-PCR (FIG. 8D to 8K)

[3] = tested on: 79-HMC; experiment: Early proliferation marker expression (RT-PCR), older donor cells; format: cell-based, human
Protocol: as §1

[4] = tested on: aged (24-month-old) C57BL/6 mice; experiment: Tissue wet weight and body weight at end of frailty study; format: in vivo; conditions: vs vehicle
Protocol: The animals were housed with access to voluntary running wheels that wirelessly transmit running data to a computer for analysis. Voluntary running wheel activity levels were measured daily, and body weights were measured every 2 weeks.
To determine whether increased wheel activity was accompanied by an increase in muscle strength, near the end of the frailty study the mice were subjected to a grid hang test, which measures forearm grip strength. […] Average latency to fall increased in the BGE-105-treated mice (p=0.04, Mann-Whitney U test) (FIGS. 3B and 3C). Thus, the increase in running activity observed in BGE-105-treated mice were accompanied by improved forearm grip strength.

[5] = tested on: phosphorylation of Akt; experiment: Western blot of Akt phosphorylation in rat tibialis anterior; format: in vivo; conditions: rats
Excerpt: (§2) Administration of an apelin receptor agonist can induce the phosphorylation and activation of AMPK in heart tissue. Tissue samples were lysed using T-PER tissue protein extraction reagent (Thermo Fisher Scientific #78510) containing EDTA and protease/phosphatase inhibitors on the Omni Bead Ruptor 12 Homogenizer. Total protein was extracted then quantified using Pierce™ BCA Protein Assay Kit. Loaded equal amounts of total protein per lane on a 4-12% SDS-PAGE gel and transferred to PVDF membrane. Membranes were blocked and blotted with anti-phospho-AMPKα-Thr172 (Cell Signaling Technology, CST #2535), total-AMPKα (CST #2532), anti-phospho-Akt-SeR^473 (CST #4060), total-Akt (CST #4685), anti-phospho-ERK-1/2-Thr202/Tyr204 of Erk1 and Thr185/Tyr187 of Erk2 (CST #4370), total-ERK-1/2 (CST #9107) or anti-APLNR receptor (abcam, ab214369) antibodies. Band intensities were normalized to loading control anti-β-Actin (CST #3700) or anti-GAPDH (abcam, ab181602) antibodies. Immunoreactive proteins were detected using SuperSignal™ West Femto Substrate (Thermo Fisher Scientific #34095) and quantified by Image Lab™ software (Bio-Rad Laboratories, Inc.).
(§3) The difference between tissues was conserved among rodent species: In rats, as in mice, apelin receptor levels in rat tissue were 2-fold higher in heart than in soleus, FIGS. 5A-5B. […]

[6] = tested on: tibialis of aged mice; experiment: CTX-induced muscle injury: histology (cross-sectional area, centrally nucleated fibers); format: in vivo
Protocol: Impairment of muscle regeneration can contribute to age-related muscle weakness. This is particularly true in aged individuals who engage in physical activity. Exercise-induced muscle hypertrophy is linked to the capacity of muscle stem cells to be activated and promote regeneration.
Mice were i.p injected with buprenorphine (Centravet, 0.1 mg/kg) 30 minutes before injury and the day after. The day of the injury, mice were anesthetized with isoflurane inhalation and hindlimbs were shaved. Then, 10 μM of cardiotoxin (CTX, Latoxan, #L8102) was injected through two injections of 25 μl into the left tibialis muscle and two injections of 50 μl into the left gastrocnemius muscle, using a 22-gauge needle (Hamilton). Mice were euthanized 3 and 7 days after injury by cervical dislocation, muscles (PBS- and CTX-injected) were cut in two parts, one being snap frozen into liquid nitrogen for total RNA extraction and the other part being embedded into OCT, frozen in isopentane cooled with liquid nitrogen for histological analysis.
Mouse muscle samples were dissected and cryopreserved in OCT frozen in liquid nitrogen cooled isopentane. Samples were then sectioned at 10 μm on a cryostat and post-fixed with 4% Paraformaldehyde (PFA) for 15min at room temperature. Muscle frozen sections (10 μm) were stained by helaun/eosin or immune-labeled for laminin (Abcam) and embryonic myosin. Briefly, sections were blocked 1 h in PBS plus 4% BS(a), 2% goat serum, 0.01% Triton X-100. Sections were then incubated overnight with primary antibodies. After washes in PBS, sections were incubated 1 h with secondary antibodies anti-Ig2b AF 488 (Life Technology). Slides were finally mounted in ProLong Gold antifade Reagent (Molecular probes by Life Technology) with DAPI. Images were captured using a digital camera (Nanozoomer, Hamamatsu) attached to a motorized fluorescence microscope or using Olympus VS120 Virtual Microscopy Slide Scanning System. The area covered by eMHC-positive fibers and degenerated area was determined manually across the entire sections using the VS-ASW FL software measurement tools. The size of myofibers with central nuclei was calculated from laminin/DAPI staining on all fibers of the section and area determination were performed across the entire sections, using an automated image processing algorithm developed internally using the MetaXpress software (Molecular Devices).

[7] = tested on: apelin receptor; experiment: Apelin receptor protein levels in rat TA after chronic dosing; format: in vivo; conditions: rats, 5 consecutive days oral, 50 mg/kg QD and 200 mg/kg BID
Excerpt: as §2, §3

[8] = tested on: 25-HMC; experiment: Early proliferation marker expression (RT-PCR), younger donor cells; format: cell-based, human
Protocol: as §1

COc1cccc(OC)c1-n1c(NS(=O)(=O)[C@@H](C)[C@H](C)c2ncc(C)cn2)nnc1-c1cncc(C)c1 [BGE-105, (2S,3R)—N-(4-(2,6-dimethoxyphenyl)-5-(5-methyl-3-pyridinyl)-4H-1,2,4-triazol-3-yl)-3-(5-methyl-2-pyrimidinyl)-2-butanesulfonamide]
cardiovascular response [1]: induces a cardiovascular response | cell proliferation, short-term treatment ([2]; aged donor cells, day 0 to day 4 post seeding): significant increase of cell proliferation | cell proliferation (measured at day 4) ([2]; 5 nM): significant increase in cell proliferation | cell proliferation (measured at day 4) ([2]; 50 nM): increase | expression of muscle cell differentiation markers Pax7, Myf5, MyoD, and MyoG ([3]; aged-donor cells): increased the expression | Pax7 levels ([3]; older cells, 0.05, 0.5, 5, 50 nM, vs control): significant increase at all treatment doses | MyoG levels ([3]; older cells, all treatment levels): increase at all treatment levels | Myf5 expression ([3]; older donor cells, 5 and 50 nM): equal to apelin treatment | MyoD levels ([3]; older donor cells, all treatment levels): increase at all treatment levels | body weight [4]: the increase was not significant | tissue wet weight, gastrocnemius [4]: trend toward higher tissue wet weight | tissue wet weight, heart [4]: no difference | tissue wet weight, quadriceps [4]: trend toward higher tissue wet weight | tissue wet weight, tibialis anterior (TA) [4]: significantly higher tissue wet weight | phosphorylation of Akt in TA ([5]; oral 50 mg/kg BID, 5 consecutive days): strongest response | phosphorylation of Akt in TA ([5]; oral dosing 5 consecutive days, across doses): dose-dependent manner | amount of centrally nucleated myofibers (CNM) ([6]; 18-months old mice after cardiotoxin, apelin 0.5 μmol/kg/day, BGE-105 200 mg/kg/day): significant increase | central nuclei in regenerating fibers ([6]; aged mice after cardiotoxin, BGE-105 50 or 200 mg/kg/day): promoted accumulation of central nuclei; also recorded: dose-dependent increase in central nucleated fibers | cross-sectional area of the tibialis ([6]; aged mice, 3 and 7 days post cardiotoxin, apelin, BGE-105 50 and 200 mg/kg/d): positive effect; also recorded: significant increase in cross sectional area | apelin receptor levels in the TA [7]: modest but non-significant decrease | expression of muscle cell differentiation markers Pax7 and MyoD ([8]; young donor cells): increased the expression | MyoD expression ([8]; younger cells, 5 nM): very significant increase | Myf5 expression ([8]; younger cells, 5 and 50 nM): equal to apelin treatment | Pax7 expression ([8]; younger cells, 5 and 50 nM): recapitulated the levels of apelin | MyoG expression (FIG. 8F) ([8]; younger cells, any amount of BGE-105, relative to control): no change
